Target: T1, Tre-C04 (TMBP-cpGFP biosensor; T. litoralis D-trehalose/D-maltose-binding protein) (Thermococcus litoralis, UniProt Q7LYW7)
T1 construct: gene malE; residues 46-450 of TMBP fused to five N-terminal residues of mature E. coli MBP, codon-optimised; expressed in E. coli Tuner, Ni-NTA purified
Assay: cpGFP fluorescence dose-response, purified biosensor, four-parameter fit
Details: 500 nM protein; PBS; 0-50 μM sugar; Ex 485 / Em 515 nm

T1 sequence (Q7LYW7 374-450): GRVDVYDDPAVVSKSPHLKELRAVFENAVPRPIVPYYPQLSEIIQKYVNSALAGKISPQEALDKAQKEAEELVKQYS
T1 sequence (Q7LYW7 46-373): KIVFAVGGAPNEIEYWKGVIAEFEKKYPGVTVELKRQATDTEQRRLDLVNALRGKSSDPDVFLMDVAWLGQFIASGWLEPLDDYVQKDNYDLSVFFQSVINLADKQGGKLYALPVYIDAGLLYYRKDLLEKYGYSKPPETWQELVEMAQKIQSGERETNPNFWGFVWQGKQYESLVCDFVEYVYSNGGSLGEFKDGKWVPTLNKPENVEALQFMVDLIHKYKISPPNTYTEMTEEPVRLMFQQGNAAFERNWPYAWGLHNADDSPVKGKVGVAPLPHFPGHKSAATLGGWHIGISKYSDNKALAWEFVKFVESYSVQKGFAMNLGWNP

Compound | Kd [nM]
OC[C@H]1O[C@H](O[C@H]2[C@H](O)[C@@H](O)C(O)O[C@@H]2CO)[C@H](O)[C@@H](O)[C@@H]1O (some centres unmarked) [maltose] | 81 ± 1
OC[C@H]1O[C@H](O[C@H]2O[C@H](CO)[C@@H](O)[C@H](O)[C@H]2O)[C@H](O)[C@@H](O)[C@@H]1O [trehalose] | 53 ± 1

From PMC4974565, “Rapid construction of metabolite biosensors using domain-insertion profiling” (Nature Communications, 2016)
